Target: T1, progesterone receptor (PR, PRb) (Homo sapiens, UniProt P06401)
T1 construct: gene PGR; wild type PRb expressed in PR-negative U2OS or TYML cells
T1 sequence (P06401 1-933): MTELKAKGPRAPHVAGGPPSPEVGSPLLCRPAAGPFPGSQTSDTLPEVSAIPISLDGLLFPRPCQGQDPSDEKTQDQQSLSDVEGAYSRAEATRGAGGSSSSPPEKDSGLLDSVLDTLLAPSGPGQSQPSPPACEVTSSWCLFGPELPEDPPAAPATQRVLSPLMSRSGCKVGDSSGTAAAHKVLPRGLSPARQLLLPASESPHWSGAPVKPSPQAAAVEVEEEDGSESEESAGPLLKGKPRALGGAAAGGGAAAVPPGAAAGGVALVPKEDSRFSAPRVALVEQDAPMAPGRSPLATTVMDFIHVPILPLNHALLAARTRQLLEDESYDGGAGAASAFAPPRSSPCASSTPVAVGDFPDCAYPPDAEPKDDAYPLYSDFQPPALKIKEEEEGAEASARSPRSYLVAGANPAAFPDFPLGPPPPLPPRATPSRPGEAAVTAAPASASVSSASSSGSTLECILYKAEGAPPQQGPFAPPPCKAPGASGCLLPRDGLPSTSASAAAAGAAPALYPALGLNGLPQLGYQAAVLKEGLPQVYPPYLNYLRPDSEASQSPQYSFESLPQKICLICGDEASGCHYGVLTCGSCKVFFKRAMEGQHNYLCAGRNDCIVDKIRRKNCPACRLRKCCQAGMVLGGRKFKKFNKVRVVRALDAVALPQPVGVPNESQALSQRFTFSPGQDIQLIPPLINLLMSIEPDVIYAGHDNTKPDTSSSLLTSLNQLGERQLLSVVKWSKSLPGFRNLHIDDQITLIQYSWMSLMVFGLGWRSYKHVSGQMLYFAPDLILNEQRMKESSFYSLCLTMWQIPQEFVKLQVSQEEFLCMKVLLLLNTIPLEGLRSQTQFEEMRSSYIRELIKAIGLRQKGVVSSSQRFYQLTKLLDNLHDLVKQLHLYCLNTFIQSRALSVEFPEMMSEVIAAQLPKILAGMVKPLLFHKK
Experiment: PR S294 phosphorylation and MMTV-luc/target gene induction by […] P4 in PR-negative cells transfected with wild type PRb
Assay type: cell-based

SMILES: CC(=O)[C@H]1CC[C@H]2[C@@H]3CCC4=CC(=O)CC[C@]4(C)[C@H]3CC[C@]12C [P4, progesterone]
- PR S294 phosphorylation and MMTV-luc/target gene induction by 10 nM P4 in PR-neg: only the wtPR-expressing cells activated the ERK kinase and led to PR phosphorylation

Reference: article PMC10884080, “A progesterone derivative linked to a stable phospholipid activates breast cancer cell response without leaving the cell membrane” (Cellular and Molecular Life Sciences: CMLS, 2024)
